[5FU] = 5-fluorouracil base replacing uracil
How the values were obtained:
TS-FdUMP = target: T1, TS-FdUMP (Homo sapiens, UniProt P04818); experiment: Western blot of TS-FdUMP in colon cancer cells; format: cell-based; details: colon/colorectal cancer cells
T1 construct: endogenous in cells
Protocol: Western immunoblot analysis: Forty-eight hours after transfection, equal amounts of protein (15 μg) extracted from cells lysed in RIPA buffer with protease inhibitor (Sigma) and were separated on 10%-12% sodium dodecyl sulfate-polyacrylamide gels using standard procedures. The primary antibodies used for the analysis were rabbit anti-YAP1 monoclonal antibody (1:10000) (Cell Signaling Technologies), anti-DLCK1 (1:500) (Abcam), anti-BCL2 (1:500) (NeoMarkers), anti-MDC1 (1:500), anti-SUZ12 (1:500), anti-pChk-1 (1:500), anti beta-actin (1:500), anti-BMI-1 (1:10000) (Cell Signaling Technologies), mouse anti-human TS antibody (1:500), anti-α-tubulin (1:50000) (Santa Cruz Biotech Inc.), anti-GAPDH (1:100000) (Santa Cruz Biotech Inc.), anti-E2F3 (1:500) (Santa Cruz Biotech Inc.), Horseradish peroxidase-conjugated antibodies against mouse or rabbit (1:5000, Santa Cruz Biotech Inc.) were used as the secondary antibodies. Protein bands were visualized with autoradiography film using SuperSignal West Pico Chemiluminescent Substrate (Thermo Fischer). Western blot density was quantified using Image J software.

[1] = tested on: HCT116 colon cancer cells; experiment: WST-1 cell proliferation assay, HCT116; format: cell-based, human; details: for inhibition of colon cancer cell proliferation: HCT116, in words, vs controls
Protocol: For transfections, […] (Thermo Fischer) following the manufacturer's protocols. For reagent free transfection, cells were plated in 6 well plates at (1×10^5) cells per well. Twenty-four hours later 100 pmol miRNA (Control, miR-15a, Mimic-1) were diluted in Optimem (Thermo Fischer) and added to the plate. Media was changed after 24 hours. Media was supplemented with 10% fetal bovine serum (Thermo Fischer). Briefly, cells were cultured in growth media (DMEM/F12 supplemented with B27, 10 ng/mL bFGF, and 20 ng/mL EGF (Life Technologies) in ultra-low attachment flasks) for up to 6 days. The spheroid cells were maintained by collection through gentle centrifugation, dissociation to single cells and replating.
Cell proliferation assay: Twenty-four hours after transfection, cells were seeded in 96-well plates at a density of 2000 cells per well. The cell proliferation assay was performed on days 1 to 5 by incubating 10 μl WST-1 (Roche Applied Science, Mannheim, Germany) in the culture medium for 1 h and reading the absorbance at 450 and 630 nm. The cell proliferation rate was calculated by subtracting the […]. Experiments for the cell proliferation assay were performed at least three times. The O.D. was calculated by subtracting the absorbance at 630 nm from that at 450 nm. Proliferation experiments were performed three times.

RKO colon cancer cells = experiment: WST-1 cell proliferation assay, RKO; format: cell-based, human; details: in words, vs controls
Protocol: (§1) For transfections, 1×10^5 cells were plated in six-well plates and transfected with 100 nM of control non-specific miRNA (Thermo Fischer), a modified microRNA, or exogenous native microRNA after 24 hours using Oligofectamine (Thermo Fischer) following the manufacturer's protocols. For reagent free transfection, cells were plated in 6 well plates at (1×10^5) cells per well. Twenty-four hours later 100 pmol miRNA (Control, miR-15a, Mimic-1) were diluted in Optimem (Thermo Fischer) and added to the plate. Media was changed after 24 hours. Media was supplemented with 10% fetal bovine serum (Thermo Fischer). Briefly, cells were cultured in growth media (DMEM/F12 supplemented with B27, 10 ng/mL bFGF, and 20 ng/mL EGF (Life Technologies) in ultra-low attachment flasks) for up to 6 days. […]
(§2) Cell proliferation assay: Twenty-four hours after transfection, cells were seeded in 96-well plates at a density of 2000 cells per well. The cell proliferation assay was performed on days 1 to 5 by incubating 10 μl WST-1 (Roche Applied Science, Mannheim, Germany) in the culture medium for 1 h and reading the absorbance at 450 and 630 nm. The cell proliferation rate was calculated by subtracting the absorbance at 450 nm from the absorbance at 630 nm. […] The O.D. was calculated by subtracting the absorbance at 630 nm from that at 450 nm. […]

SW620 colon cancer cells = experiment: WST-1 cell proliferation assay, SW620; format: cell-based, human; details: SW620, in words, vs controls
Protocol: as §1, §2

colon cancer stem cells = experiment: Anchorage-independent colony formation (soft agar); format: cell-based, human; details: soft agar / Matrigel matrix
Protocol: Anchorage-independent proliferation was studied to determine cancer cell colony forming ability. Cancer cells were trypsinized and counted and a total of 1×10^5 cells per well were transfected in 6-well plates with 25 nM modified microRNA or native miRs or a negative control miRNA with oligofectamine, and 6 hours after transfection, cells were recounted. A total of 20,000 cells in 0.35% agar (Bacto Agar; Becton Dickinson) were layered on top of 1 mL of a solidified 0.6% agar layer in a 35-mm dish. Growth media with B27, 10 ng/mL bFGF, and 20 ng/mL EGF were included in both layers. After 2 weeks of incubation, colonies more than […] in diameter were counted.

[2] = tested on: metastatic human colon cancer cells; experiment: Colon cancer metastasis mouse model, intravenous miRNA delivery; format: in vivo; details: 40 μg intravenous, every other day for two weeks
Protocol: For in vivo miRNA delivery experiments, colon cancer cells were created that expressed the lenti-luc reporter gene by infecting parental HCT116 cells with a recombinant lentivirus. Luciferase-expressing HCT116 cells (2.0×10^6 cells per mouse) were suspended in 0.1 mL of PBS solution and was injected through tail vein of each mouse. Two weeks after injection of colon cancer cells, mice were treated via tail vein injection with 40 μg of negative control or modified miR(s) packaged with in vivo-jetPEI (Polyplus Transfection). Mice were treated every other day for 2 weeks (8 times). Following treatment, mice were screened using IVIS Spectrum In vivo Imaging System (IVIS) (PerkinElmer).

[3] = tested on: Panc-1 pancreatic cancer cells; experiment: Cell proliferation, Panc-1; format: cell-based, human; details: for cell proliferation, dose dependence: PANC-1, 50 nM, 25 nM, 12.5 nM, 6.25 nM, and 3.125 nM
[4] = tested on: AsPC-1 pancreatic cancer cells; experiment: Cell proliferation, AsPC-1; format: cell-based, human; details: for cell proliferation, dose dependence: APSC-1, 50 nM, 25 nM, 12.5 nM, 6.25 nM, and 3.125 nM
[5] = tested on: Hs766T pancreatic cancer cells; experiment: Cell proliferation, Hs766T; format: cell-based, human; details: compared to negative controls
Procedure, shortened: (§3)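 Cells transfected with 100 nM control, modified or native miRNA (Oligofectamine) or with 100 pmol miRNA without reagent. Seeded at 2000 cells/well 24 h post-transfection; WST-1 read for 1 h on days 1 to 5 at 450 and 630 nm. Values are O.D. (450 minus 630 nm), from at least three experiments.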

[6] = tested on: SKBR3 breast cancer cells; experiment: Cell proliferation, SKBR3; format: cell-based, human; details: SKBR3, compared to negative controls
Procedure, shortened: as §3

[7] = tested on: acute lymphocytic leukemia cell line (REH); experiment: Cell proliferation, REH; format: cell-based, human; details: compared to negative controls

T1 sequence (P04818 2-313 limits assumed): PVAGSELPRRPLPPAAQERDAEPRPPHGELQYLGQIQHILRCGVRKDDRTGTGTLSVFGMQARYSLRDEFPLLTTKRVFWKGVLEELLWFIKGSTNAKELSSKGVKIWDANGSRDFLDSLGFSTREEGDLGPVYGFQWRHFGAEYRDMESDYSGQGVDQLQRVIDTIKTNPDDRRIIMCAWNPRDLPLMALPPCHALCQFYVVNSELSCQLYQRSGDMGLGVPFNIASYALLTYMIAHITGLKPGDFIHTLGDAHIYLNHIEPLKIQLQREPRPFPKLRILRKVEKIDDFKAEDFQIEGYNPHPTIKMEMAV

Row | Substance | TS-FdUMP break down (TS-FdUMP) | HCT-116 tumor cell growth ([1]; 50 nM) | inhibition of colon cancer cell proliferation [1] | inhibitory effect on cell proliferation relative to native miR-129 ([1]; HCT-116, FIG. 3) | inhibition of colon cancer cell proliferation (RKO colon cancer cells) | inhibition of colon cancer cell proliferation (SW620 colon cancer cells) | colony / sphere formation (colon cancer stem cells) | colon cancer metastasis [2] | toxicity [2] | toxicity ([2]; listed as modified microRNA-129) | cell proliferation, dose dependence [3] | cell proliferation, dose dependence [4] | pancreatic cancer cell proliferation [5] | breast cancer cell proliferation [6] | leukemia cancer cell proliferation [7] | decrease of cell proliferation compared to control ([1]; HCT-116, WST-1, six days after transfection) | inhibition of cell proliferation ([3]; Panc-1, compared to unmodified miR or negative controls) | inhibition of cell proliferation ([4]; AsPC-1, compared to unmodified miR or negative controls)
1 | CU^FU^FU^FU^FU^FGCGGU^FCU^FGGGCU^FU^FGC (CUUUUUGCGGUCUGGGCUUGC; RNA, [5FU] at 2, 3, 4, 5, 6, 11, 13, 18, 19, backbone not given here) [modified miR-129] | break downs TS-FdUMP significantly better than 5-FU alone | suppress HCT-116 tumor cell growth completely | inhibition of colon cancer cell proliferation | much more potent than the native miR-129 | inhibition of colon cancer cell proliferation | inhibition of colon cancer cell proliferation | formed no visible spheres | inhibits colon cancer metastasis | did not exhibit any toxicity | no toxic side effects | inhibited in a dose dependent manner | inhibited in a dose dependent manner | inhibited | inhibited | inhibited |  |  | 
2 | U^FAGCAGCACAU^FAAU^FGGU^FU^FU^FGU^FG (UAGCAGCACAUAAUGGUUUGUG; RNA, [5FU] at 1, 11, 14, 17, 18, 19, 21, backbone not given here) [modified miR-15a] | break downs TS-FdUMP |  | enhanced ability to inhibit colon cancer cell proliferation |  | enhanced ability to inhibit colon cancer cell proliferation | enhanced ability to inhibit colon cancer cell proliferation | no colonies were observed | inhibit colon cancer metastasis | did not exhibit any toxicity |  | inhibited in a dose dependent manner | inhibited in a dose dependent manner | inhibited | inhibited | inhibited | 84% | enhanced ability to inhibit | enhanced ability to inhibit

Reference: US12319913B2, “5-halouracil-modified microRNAs and their use in the treatment of cancer” (The Research Foundation for The State University of New York, priority 2018, dated 2025)
